Holding throughout (assay): KINOMEscan competition binding
In experiment [1] the target is T1, ARK5 (Homo sapiens, UniProt O60285).
T1 sequence (O60285 1-661): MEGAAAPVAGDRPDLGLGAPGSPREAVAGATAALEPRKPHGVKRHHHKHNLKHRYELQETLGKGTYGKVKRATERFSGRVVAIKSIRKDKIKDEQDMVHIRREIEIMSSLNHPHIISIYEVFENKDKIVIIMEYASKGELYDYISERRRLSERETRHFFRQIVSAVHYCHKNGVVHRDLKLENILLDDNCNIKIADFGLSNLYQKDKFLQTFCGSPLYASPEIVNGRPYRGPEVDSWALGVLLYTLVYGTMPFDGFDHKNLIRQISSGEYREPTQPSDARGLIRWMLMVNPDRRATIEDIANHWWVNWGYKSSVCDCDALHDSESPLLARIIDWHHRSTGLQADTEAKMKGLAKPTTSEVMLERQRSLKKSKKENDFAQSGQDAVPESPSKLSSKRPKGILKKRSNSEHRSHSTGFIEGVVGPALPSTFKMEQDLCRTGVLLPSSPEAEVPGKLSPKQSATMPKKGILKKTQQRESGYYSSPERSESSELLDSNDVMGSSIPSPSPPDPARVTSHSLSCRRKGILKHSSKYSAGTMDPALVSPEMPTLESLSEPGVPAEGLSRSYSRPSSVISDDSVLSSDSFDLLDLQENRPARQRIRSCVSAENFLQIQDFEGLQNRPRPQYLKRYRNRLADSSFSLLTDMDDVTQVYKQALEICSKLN
The following applies: read-out: %Inh ARK5.

Experiment [2] concerns the target CDK2 (Homo sapiens, UniProt P24941). Particulars: read-out: %Inh CDK2.
The target of experiment [3] is T2, DRAK1 (Homo sapiens, UniProt Q9UEE5).
T2 sequence (Q9UEE5 1-414): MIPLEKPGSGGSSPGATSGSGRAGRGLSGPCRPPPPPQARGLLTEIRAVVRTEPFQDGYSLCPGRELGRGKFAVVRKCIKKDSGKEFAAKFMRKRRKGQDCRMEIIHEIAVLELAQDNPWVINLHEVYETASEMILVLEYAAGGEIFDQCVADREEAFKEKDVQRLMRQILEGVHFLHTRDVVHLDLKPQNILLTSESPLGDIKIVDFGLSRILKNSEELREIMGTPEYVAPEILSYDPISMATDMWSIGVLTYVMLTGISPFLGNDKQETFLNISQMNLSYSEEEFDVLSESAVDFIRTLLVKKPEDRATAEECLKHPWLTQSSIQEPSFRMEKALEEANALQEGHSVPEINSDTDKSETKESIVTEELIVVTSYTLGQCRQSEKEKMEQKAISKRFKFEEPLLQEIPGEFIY
The following applies: read-out: %Inh DRAK1.

Experiment [4] addresses T3, ASK1 (Homo sapiens, UniProt Q99683).
T3 sequence (Q99683 1-1374): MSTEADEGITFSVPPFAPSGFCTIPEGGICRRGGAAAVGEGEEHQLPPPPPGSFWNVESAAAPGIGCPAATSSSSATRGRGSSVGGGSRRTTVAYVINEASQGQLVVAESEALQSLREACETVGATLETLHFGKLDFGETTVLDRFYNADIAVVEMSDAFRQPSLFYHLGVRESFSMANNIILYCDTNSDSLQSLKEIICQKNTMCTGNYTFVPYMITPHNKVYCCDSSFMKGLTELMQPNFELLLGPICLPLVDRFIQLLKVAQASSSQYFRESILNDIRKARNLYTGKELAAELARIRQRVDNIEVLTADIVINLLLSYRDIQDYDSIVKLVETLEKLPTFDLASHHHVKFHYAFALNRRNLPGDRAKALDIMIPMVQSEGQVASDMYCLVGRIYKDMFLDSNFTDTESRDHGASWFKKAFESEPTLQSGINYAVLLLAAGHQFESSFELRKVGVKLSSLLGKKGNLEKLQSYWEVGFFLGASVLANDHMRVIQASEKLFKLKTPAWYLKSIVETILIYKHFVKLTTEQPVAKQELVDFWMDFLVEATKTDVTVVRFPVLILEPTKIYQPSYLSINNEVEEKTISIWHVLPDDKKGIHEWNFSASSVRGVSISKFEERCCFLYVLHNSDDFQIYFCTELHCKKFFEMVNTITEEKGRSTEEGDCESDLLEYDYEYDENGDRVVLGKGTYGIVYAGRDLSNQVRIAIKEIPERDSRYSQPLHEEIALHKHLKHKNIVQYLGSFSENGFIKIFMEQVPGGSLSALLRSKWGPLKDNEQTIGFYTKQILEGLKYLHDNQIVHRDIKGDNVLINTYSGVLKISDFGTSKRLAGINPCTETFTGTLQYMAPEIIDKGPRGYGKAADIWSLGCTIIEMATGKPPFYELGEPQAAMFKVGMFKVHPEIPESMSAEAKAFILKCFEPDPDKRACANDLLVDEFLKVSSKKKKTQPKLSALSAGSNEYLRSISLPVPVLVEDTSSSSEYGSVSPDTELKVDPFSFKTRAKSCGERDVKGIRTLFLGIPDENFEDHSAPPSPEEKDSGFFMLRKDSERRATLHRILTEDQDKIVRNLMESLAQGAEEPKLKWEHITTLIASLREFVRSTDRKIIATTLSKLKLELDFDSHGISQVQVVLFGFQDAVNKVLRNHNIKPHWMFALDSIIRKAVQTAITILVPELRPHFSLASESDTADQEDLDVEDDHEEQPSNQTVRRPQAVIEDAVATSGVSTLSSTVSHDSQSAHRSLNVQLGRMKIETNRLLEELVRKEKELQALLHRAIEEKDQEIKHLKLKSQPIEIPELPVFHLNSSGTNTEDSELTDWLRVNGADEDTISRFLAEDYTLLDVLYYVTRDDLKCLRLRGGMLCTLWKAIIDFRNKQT
Particulars: read-out: %Inh ASK1.

`COc1cccc(OC)c1C(=O)Nc1cccc(-c2nn3ccccc3c2-c2ccnc(Nc3cccc(F)c3)n2)c1` [UNC10225310A]: the inhibition at 1 µM in experiment [1] was found to be 0%; in experiment [2] it was 0%; in experiment [3], 12%; in experiment [4] it was 22%.
Consider `O=c1cc(N2CCOCC2)nc2n(Cc3cccc(Cl)c3Cl)c(C3CC3)nn12` [UNC10225469A], for which the inhibition at 1 µM in experiment [1] worked out at 0%; in experiment [2], 0%; in experiment [3] it was 11%; in experiment [4], 0%.
In the case of `Cn1cc(-c2cnc(N)c3c(-c4ccc5c(c4)CCN5C(=O)Cc4ccccc4)csc23)cn1` [UNC10225012A], the inhibition at 1 µM in experiment [1] was 3%; in experiment [2] it was 0%; in experiment [3], 0%; in experiment [4], 21%.
With `CS(=O)(=O)Cc1ccc(Nc2nccc(-c3c(-c4cccc(NC(=O)C5CCCCC5)c4)nn4ncccc34)n2)cc1` [UNC10225159A], the inhibition at 1 µM in experiment [1], in experiment [2], in experiment [3] and in experiment [4] was 0% in each case.
In the case of `Cc1ccc(NC(=O)Nc2cccc(C(F)(F)F)c2)cc1` [UNC10225187A], the inhibition at 1 µM in experiment [1] is 0%; in experiment [2], 0%; in experiment [3] it was 15%; in experiment [4], 20%.

Values taken from article PMC5540273, “Progress towards a public chemogenomic set for protein kinases and a call for contributions” (PLoS ONE, 2017).
